Results from patent US9981906B2, “Trans-clomiphene metabolites and uses thereof” (Repros Therapeutics Inc., priority 2011, dated 2018).

What was measured:
[1] = test system: cryopreserved hepatocytes from Beagle dog; experiment: Metabolite profile of Androxal in cryopreserved Beagle dog hepatocytes; format: in vitro ADME; details: LC/MS
Method: (§1) A study was conducted to determine the metabolic profile of Androxal® in cryopreserved hepatocytes from Sprague-Dawley rat, Beagle dog, cynomolgus monkey, and human. The liver is the main site of drug metabolism and the full complement of hepatic drug metabolizing enzymes (including liver enzymes of the CYP P450 family) are maintained within the intact cell. Isolated liver hepatocytes constitute a physiologically relevant experimental model for the evaluation of liver-related drug properties such as metabolism. Cyropreservation of the hepatocytes greatly enhances their availability for studies.
(§2) Primary hepatocytes isolated from several donors for each animal species and five human donors were pooled according to species and cryopreserved. The hepatocytes were thawed, subjected to Percoll density gradient centrifugation to remove debris and counted to determine yield. Viability was measured using Trypan blue exclusion. The hepatocytes were diluted with CYP assay buffer (Krebs-Hensleit Buffer) to prepare a 2× cell suspension of 2.0×10^6 viable cells/ml. Aliquots of the 2× hepatocyte suspension (0.5 ml containing 1.0×10^6 cells) were transferred to appropriate wells for a final 1× cell density of 1.0×10^6 cells/well. All incubations were conducted at 37±1° C., 95% air/5% CO2, and saturating humidity in 12-well uncoated culture plates. […] The cultures were incubated for 1 and 4 hours. The sample size was N=2 replicates.
(§3) Matrix control samples were included as a source of background matrix components to aid in metabolite identification. Equal volumes of 2× hepatocyte suspension and CYP assay buffer without Androxal® were combined and incubated for 4 hours.
Chemical degradation control samples were included to evaluate the possibility of chemical degradation of Androxal® in the absence of cells. […]
(§4) The incubations were terminated as follows: Metabolic positive control incubations were terminated by adding an equal volume of methanol. All other incubations were terminated by placing the plates on ice. The contents of each well were mixed thoroughly and divided into five cryovials. An equal volume of organic solvent was added to one cryovial. The samples were either immediately analyzed or stored in cryovials at −70°±10 C until analysis.
(§5) All samples were analyzed by reverse-phase HPLC. A UV profile of the samples was obtained followed by liquid chromatography-mass spectrometry (LC/MS) analysis using a Micromass® Q-Tof-2 mass spectrometer capable of conducting accurate mass measurement. Preliminary metabolite identification was aided by the use of Metabolynx® software.
(§6) The relative amounts of Androxal and its metabolites after 1 and 4 hour incubations are reported below at Tables 1-4.

[2] = test system: cryopreserved hepatocytes from human; experiment: Metabolite profile of Androxal in cryopreserved human hepatocytes; format: in vitro ADME; details: LC/MS
Method: as §1, §2, §3
(§7) Chemical degradation control samples were included to evaluate the possibility of chemical degradation of Androxal® in the absence of cells. Equal volumes of 2× Androxal® dosing solution (6 and 60 μM) and CYP buffer were combined and incubated for 1 and 4 hours.
as §4, §5, §6

[3] = test system: cryopreserved hepatocytes from cynomolgus monkey; experiment: Metabolite profile of Androxal in cryopreserved cynomolgus monkey hepatocytes; format: in vitro ADME; details: LC/MS
Method: as §1, §2, §3, §7, §4, §5, §6

[4] = test system: cryopreserved hepatocytes from Sprague-Dawley rat; experiment: Metabolite profile of Androxal in cryopreserved Sprague-Dawley rat hepatocytes; format: in vitro ADME; details: LC/MS
Method: as §1, §2, §3, §7, §4, §5, §6

[5] = following a single dose; cited from earlier work
[6] = incubations containing 3 μM Androxal for 1 hour
[7] = incubations containing 3 μM Androxal for 4 hours
[8] = incubations containing 30 mM Androxal for 1 hour
[9] = incubations containing 30 μM Androxal for 4 hours

Row | SMILES | relative amount, Human [2, 6] | relative amount, Human [2, 7] | relative amount, Cyno. monkey [3, 6] | relative amount, Cyno. monkey [3, 7] | relative amount, Beagle dog [1, 6] | relative amount, Beagle dog [1, 7] | relative amount, Beagle dog [1, 8] | relative amount, SD Rat [4, 6] | relative amount, SD Rat [4, 7] | relative amount, SD Rat [4, 8] | relative amount, Human [2, 9] | relative amount, Human [2, 8] | relative amount, Cyno. monkey [3, 9] | relative amount, Cyno. monkey [3, 8] | relative amount, Beagle dog [1, 9] | relative amount, SD Rat [4, 9] | relative amount, Beagle dog ([1]; incubations containing 30 μM Androxal for 4 hours, retention time 22.7) | relative amount, Beagle dog ([1]; incubations containing 30 μM Androxal for 4 hours, retention time 22.95) | residual blood levels [5]
1 | CCN(CC)CCOc1ccc(C(c2ccc(O)c(O)c2)C(Cl)c2ccccc2)cc1 (centres unmarked) [C26H30NO3Cl] | – | – | – | – | – | – | – | – | – | – | – | – | – | – | – | – | 65.9 | 43.7 | –
2 | CCN(CC)CCOc1ccc(/C(=C(/Cl)c2ccccc2)c2ccccc2)cc1 (single isomer, unassigned) [cis isomer, cis-clomiphene] | – | – | – | – | – | – | – | – | – | – | – | – | – | – | – | – | – | – | in excess of one month

Further lines, with some results ahead:

Row | relative amount, Human [2, 6] | relative amount, Human [2, 7] | relative amount, Cyno. monkey [3, 6] | relative amount, Cyno. monkey [3, 7] | relative amount, Beagle dog [1, 6] | relative amount, Beagle dog [1, 7] | relative amount, Beagle dog [1, 8] | relative amount, SD Rat [4, 6] | relative amount, SD Rat [4, 7] | relative amount, SD Rat [4, 8] | relative amount, Human [2, 9] | relative amount, Human [2, 8] | relative amount, Cyno. monkey [3, 9] | relative amount, Cyno. monkey [3, 8] | relative amount, Beagle dog [1, 9] | relative amount, SD Rat [4, 9] | SMILES | relative amount, Beagle dog ([1]; incubations containing 30 μM Androxal for 4 hours, retention time 22.7) | relative amount, Beagle dog ([1]; incubations containing 30 μM Androxal for 4 hours, retention time 22.95) | residual blood levels [5]
3 | 240.3 | 247.0 | 239.4 | 43.4 | 218.8 | 103.4 | 1535.2 | 100.9 | 31.1 | 992.7 | – | – | – | – | – | – | CCN(CC)CCOc1ccc(/C(=C(/Cl)c2ccccc2)c2ccc(O)cc2)cc1 [C26H28NO2Cl, 4-hydroxy-trans-clomiphene] | – | – | –
4 | 48.3 | 43.4 | 22.3 | – | 25.9 | 18.6 | – | – | – | 336.6 | 1262.4 | 699.8 | 2175.0 | 1029.8 | 723.5 | 673.8 | CCNCCOc1ccc(/C(=C(/Cl)c2ccccc2)c2ccccc2)cc1 [C24H24NOCl, N-desethyl-trans-clomiphene] | – | – | –
5 | 625.8 | 285.4 | 279.1 | 84.2 | 148.9 | 103.2 | 6227.3 | 240.0 | 182.5 | 3166.8 | 4012.5 | 4297.8 | 2828.5 | 3166.4 | 4989.3 | 3123.3 | CCN(CC)CCOc1ccc(/C(=C(\Cl)c2ccccc2)c2ccccc2)cc1 [C26H28ClNO, trans-clomiphene] | – | – | –
